Like-named read-outs stand apart in the source and are kept apart here.
Columns and labels:
hPDE3B = assay: In vitro assay PDE3 (SPA, 3H-cAMP); format: biochemical, human; set-up: hPDE3B Emax: unit not given here; settings: for hPDE3B pIC50: 0.4 μM cAMP substrate
hPDE10A2 = hPDE10A2 (Homo sapiens, UniProt Q9Y233); assay: biochemical; settings: for IC50: 60 nM cAMP substrate, read-out: hPDE10A2 pIC50 (converted); for Emax: read-out: hPDE10A2 Emax
Method: Rat recombinant PDE10A (rPDE10A2) was expressed in Sf9 cells using a recombinant rPDE10A baculovirus construct. Cells were harvested after 48 h of infection and the rPDE10A protein was purified by metal chelate chromatography on Ni-sepharose 6FF. Tested compounds were dissolved and diluted in 100% DMSO to a concentration 100 fold of the final concentration in the assay. Human recombinant PDE10A […] was expressed in Sf9 cells using a recombinant hPDE10A baculovirus that was made and amplified in house. Cells were harvested after 72 h of infection and the hPDE10A protein was purified by metal chelate chromatography on Ni-sepharose. Compound dilutions (0.4 μl) were added in 384 well plates to 20 μl of incubation buffer (50 mM Tris pH 7.8, 8.3 mM MgCl2, 1.7 mM EGTA). […] of rPDE10A or hPDE10A enzyme in incubation buffer was added and the reaction was started by addition of 10 μl substrate to a final concentration of 60 nM cAMP and 0.008 μCi ^3H-cAMP. The reaction was incubated for 60 minutes at room temperature. […] After sedimentation of the beads during 30 minutes the radioactivity was measured in a Perkin Elmer Topcount scintillation counter and results were expressed as cpm. For blanc values the enzyme was omitted from the reaction and replaced by incubation buffer. Control values were obtained by addition of a final concentration of 1% DMSO instead of compound.

PDE2A = target: T1, PDE2A (Rattus norvegicus, UniProt Q01062); assay: PDE2 occupancy by ex-vivo autoradiography with [3H]B-17a; format: in vivo; settings: for receptor occupancy at 10 mg/kg / ED50: rat; for ED50: read-out: PDE occupancy ED50, route PO (oral), male Wistar rats, dose producing 50% occupancy
T1 construct: from tissue; host or cells: rat brain striatal sections (ex vivo)
T1 sequence (Q01062 1-928): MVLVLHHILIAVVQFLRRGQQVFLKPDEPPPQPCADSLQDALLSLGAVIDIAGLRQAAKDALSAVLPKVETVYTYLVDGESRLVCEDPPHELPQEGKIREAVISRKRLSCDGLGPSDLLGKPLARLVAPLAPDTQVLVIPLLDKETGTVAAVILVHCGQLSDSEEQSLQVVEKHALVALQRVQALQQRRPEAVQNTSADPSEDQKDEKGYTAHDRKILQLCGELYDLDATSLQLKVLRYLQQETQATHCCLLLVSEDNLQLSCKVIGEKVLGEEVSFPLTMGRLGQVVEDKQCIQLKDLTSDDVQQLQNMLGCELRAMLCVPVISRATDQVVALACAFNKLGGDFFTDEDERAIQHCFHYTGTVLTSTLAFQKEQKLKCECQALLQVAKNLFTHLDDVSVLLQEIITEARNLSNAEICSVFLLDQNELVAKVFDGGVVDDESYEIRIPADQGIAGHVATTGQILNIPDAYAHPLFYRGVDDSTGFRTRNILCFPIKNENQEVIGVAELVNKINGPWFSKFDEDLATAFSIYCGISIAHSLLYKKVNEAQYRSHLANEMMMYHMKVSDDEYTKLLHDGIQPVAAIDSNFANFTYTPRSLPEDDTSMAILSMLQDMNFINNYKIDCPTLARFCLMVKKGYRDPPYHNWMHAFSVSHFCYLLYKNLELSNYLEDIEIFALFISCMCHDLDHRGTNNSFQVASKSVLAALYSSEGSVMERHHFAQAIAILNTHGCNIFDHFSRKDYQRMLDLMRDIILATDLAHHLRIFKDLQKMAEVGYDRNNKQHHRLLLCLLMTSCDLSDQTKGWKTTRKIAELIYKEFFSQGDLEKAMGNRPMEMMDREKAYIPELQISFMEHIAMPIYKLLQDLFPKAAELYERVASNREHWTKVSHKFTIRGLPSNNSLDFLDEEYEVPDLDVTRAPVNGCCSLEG
Method: PDE2 Occupancy by Test Compounds Methods
Brains were immediately removed from the skull and rapidly frozen in dry-ice cooled 2-methylbutane (−40° C.).
After thawing, sections were dried under a cold stream of air and incubated for one minute with 30 nM [^3H]B-17a in Tris-HCl (50 mM, pH7.4) containing 0.3% BSA. Brain sections from drug-treated and vehicle-treated animals were incubated in parallel. […] After incubation, the excess of [^3H]B-17a was washed off in ice-cold buffer 2 times 10 minutes, followed by a quick dip in distilled water. The sections were then dried under a stream of cold air.
Brain sections were loaded in a β-imager (Biospace, Paris) for 4 h and radioactivity emerging from delineated brain area was quantified using the Beta vision program (Biospace, Paris). Specific binding was determined as the difference between total binding in the striatum and non-specific binding in the cerebellum. Percentage receptor occupancy of the drug administered to the animal corresponded to 100% minus the percentage receptor labeled in the treated animal. For the determination of ED50-values, the percentage of receptor occupancy was plotted against dose and the sigmoidal log dose-effect curve of best fit was calculated by non-linear regression analysis, using the GraphPad Prism program.

hPDE2A = target: T2, hPDE2A (Homo sapiens, UniProt O00408); assay: In vitro assay PDE2A (SPA, 3H-cGMP); format: biochemical; settings: for Emax: read-out: hPDE2A Emax
T2 construct: made in house; host or cells: Sf9 insect cells (baculovirus)
Method: Human recombinant PDE2A (hPDE2A) was expressed in Sf9 cells using a recombinant rPDE10A baculovirus construct. Cells were harvested after 48 h of infection and the hPDE2A protein was purified by metal chelate chromatography on Ni-sepharose 6FF. Tested compounds were dissolved and diluted in 100% DMSO to a concentration 100 fold of the final concentration in the assay. Compound dilutions (0.4 μl) were added in 384 well plates to 20 μl of incubation buffer (50 mM Tris pH 7.8, 8.3 mM MgCl2, 1.7 mM EGTA). 10 μl of hPDE2A enzyme in incubation buffer was added and the reaction was started by addition of 10 μl substrate to a final concentration of 10 μM cGMP and 0.01 μCi ^3H-cGMP. The reaction was incubated for 45 minutes at room temperature. […] After sedimentation of the beads during 30 minutes the radioactivity was measured in a Perkin Elmer Topcount scintillation counter and results were expressed as cpm. For blanc values the enzyme was omitted from the reaction and replaced by incubation buffer. Control values were obtained by addition of a final concentration of 1% DMSO instead of compound.

[1] = po, read-out: PDE2 occupancy at 10 mg/kg, route PO (oral), 10 mg/kg, male Wistar rats, striatum, percentage occupancy
[2] = sc, read-out: PDE2 occupancy at 10 mg/kg, route SC (subcutaneous), 10 mg/kg, male Wistar rats, striatum, percentage occupancy

T2 sequence (O00408 whole entry): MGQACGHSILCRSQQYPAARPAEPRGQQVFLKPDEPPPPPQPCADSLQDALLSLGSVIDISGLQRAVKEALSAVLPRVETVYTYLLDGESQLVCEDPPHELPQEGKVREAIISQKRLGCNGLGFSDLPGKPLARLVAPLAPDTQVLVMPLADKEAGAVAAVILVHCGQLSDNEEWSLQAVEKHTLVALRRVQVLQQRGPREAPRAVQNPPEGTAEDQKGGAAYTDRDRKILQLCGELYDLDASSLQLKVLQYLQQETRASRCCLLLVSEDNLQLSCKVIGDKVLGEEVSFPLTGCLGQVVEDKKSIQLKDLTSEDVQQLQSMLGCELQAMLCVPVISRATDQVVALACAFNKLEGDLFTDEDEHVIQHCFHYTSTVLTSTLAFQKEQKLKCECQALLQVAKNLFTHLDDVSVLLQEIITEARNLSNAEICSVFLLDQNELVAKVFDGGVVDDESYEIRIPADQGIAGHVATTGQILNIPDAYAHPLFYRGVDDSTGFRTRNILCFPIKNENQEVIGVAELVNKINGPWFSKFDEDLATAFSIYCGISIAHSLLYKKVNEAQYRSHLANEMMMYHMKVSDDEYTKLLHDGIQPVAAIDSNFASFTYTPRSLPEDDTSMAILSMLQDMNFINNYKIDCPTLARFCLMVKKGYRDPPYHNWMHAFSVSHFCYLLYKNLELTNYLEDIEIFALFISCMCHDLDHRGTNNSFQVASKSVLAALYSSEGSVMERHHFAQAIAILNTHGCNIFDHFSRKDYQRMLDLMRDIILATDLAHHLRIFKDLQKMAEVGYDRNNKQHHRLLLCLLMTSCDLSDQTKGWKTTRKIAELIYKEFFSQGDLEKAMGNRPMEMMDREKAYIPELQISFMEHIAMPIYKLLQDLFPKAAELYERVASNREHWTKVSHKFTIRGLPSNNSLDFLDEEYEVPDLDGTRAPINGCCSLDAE
Sequence of hPDE10A2 (Q9Y233 267-1055): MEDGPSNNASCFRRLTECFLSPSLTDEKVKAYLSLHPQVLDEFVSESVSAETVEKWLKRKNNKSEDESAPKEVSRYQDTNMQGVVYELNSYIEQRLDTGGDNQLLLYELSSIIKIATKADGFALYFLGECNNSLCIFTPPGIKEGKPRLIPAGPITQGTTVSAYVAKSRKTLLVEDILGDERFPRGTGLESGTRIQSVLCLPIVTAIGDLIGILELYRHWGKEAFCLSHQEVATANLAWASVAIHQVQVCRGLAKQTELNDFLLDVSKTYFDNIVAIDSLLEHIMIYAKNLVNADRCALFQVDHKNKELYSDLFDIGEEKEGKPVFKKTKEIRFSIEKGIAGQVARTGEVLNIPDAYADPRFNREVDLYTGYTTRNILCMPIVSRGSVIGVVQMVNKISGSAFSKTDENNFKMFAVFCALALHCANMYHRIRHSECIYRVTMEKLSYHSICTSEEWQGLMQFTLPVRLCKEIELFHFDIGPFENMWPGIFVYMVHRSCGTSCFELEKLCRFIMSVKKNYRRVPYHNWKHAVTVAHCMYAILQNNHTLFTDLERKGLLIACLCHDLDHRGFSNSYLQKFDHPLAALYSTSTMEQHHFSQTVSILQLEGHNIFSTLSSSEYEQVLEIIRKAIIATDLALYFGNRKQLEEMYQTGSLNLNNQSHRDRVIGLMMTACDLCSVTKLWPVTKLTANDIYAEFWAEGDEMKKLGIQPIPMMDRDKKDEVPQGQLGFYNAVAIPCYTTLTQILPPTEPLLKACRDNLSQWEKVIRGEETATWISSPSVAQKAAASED

Which results are given for `C[C@@H]1CCN(c2ccc(C#N)cn2)C[C@H]1c1cc(C(F)F)nc2ncnn12` [Compound 35]?
hPDE3B Emax (hPDE3B): 31; hPDE3B pIC50 (hPDE3B): <5; IC50 (hPDE10A2): 1380 nM; Emax (hPDE10A2): 85%; receptor occupancy at 10 mg/kg (PDE2A; po, read-out: PDE2 occupancy at 10 mg/kg): 0%; IC50 (hPDE2A): 162 nM; Emax (hPDE2A): 99%

With `Cc1cc([C@@H]2CN(c3nccc4ccc(Br)cc34)CC[C@H]2C)n2ncnc2n1` [Compound 2] as the compound, how does the “hPDE3B Emax” value (hPDE3B) read?
Its value is 89.

What about the “hPDE3B pIC50” value (hPDE3B) of the same compound?
The value was 5.45.

And the IC50 (hPDE10A2)?
Its IC50 is 74.1 nM.

What about the Emax (hPDE10A2) of the same compound?
The Emax was 102%.

And the receptor occupancy at 10 mg/kg (PDE2A; [1])?
Its receptor occupancy at 10 mg/kg is 96%.

What about the ED50 (PDE2A; po) of the same compound?
The ED50 was 2.6 mg/kg.

What about the IC50 (hPDE2A) of the same compound?
Its IC50 is 1.07 nM.

And the Emax (hPDE2A)?
Its Emax is 100%.

Which “hPDE3B Emax” value (hPDE3B) does the source give for `C[C@H]1CCN(c2nccc3occc23)C[C@@H]1c1cc(C(F)F)nc2ncnn12` [Compound 30] here?
Its value is 53.

And the “hPDE3B pIC50” value (hPDE3B)?
The value was 5.02.

What about the IC50 (hPDE10A2) of the same compound?
Its IC50 is > 10000 nM.

And the Emax (hPDE10A2)?
The Emax was 41%.

What about the melting point of the same compound?
Its melting point is 184.03 °C.

And the IC50 (hPDE2A)?
Its IC50 is 8510 nM.

And the Emax (hPDE2A)?
Its Emax is 9%.

With `COc1cccc2c(N3CC[C@@H](C)[C@H](c4cc(C(F)F)nc5ncnn45)C3)nccc12.Cl` [Compound 10] as the compound, how does the “hPDE3B Emax” value (hPDE3B) read?
The value was 84.

What about the “hPDE3B pIC50” value (hPDE3B) of the same compound?
The value was 5.53.

What about the IC50 (hPDE10A2) of the same compound?
Its IC50 is 490 nM.

What about the Emax (hPDE10A2) of the same compound?
Its Emax is 100%.

What about the ED50 (PDE2A; po) of the same compound?
The ED50 was 20 mg/kg.

What about the receptor occupancy at 10 mg/kg (PDE2A; [2]) of the same compound?
The receptor occupancy at 10 mg/kg was 53%.

What about the IC50 (hPDE2A) of the same compound?
Its IC50 is 12.9 nM.

And the Emax (hPDE2A)?
The Emax was 99%.

For `Cc1ccc(C#N)c(N2CC[C@@H](C)[C@H](c3cc(C(F)F)nc4ncnn34)C2)n1` [Compound 17], which “hPDE3B Emax” value (hPDE3B) is on record?
Its value is 66.

What about the “hPDE3B pIC50” value (hPDE3B) of the same compound?
Its value is 5.15.

And the IC50 (hPDE10A2)?
Its IC50 is 102 nM.

What about the Emax (hPDE10A2) of the same compound?
Its Emax is 97%.

What about the receptor occupancy at 10 mg/kg (PDE2A; route PO (oral), 10 mg/kg, male Wistar rats, striatum, percentage occupancy, read-out: PDE2 occupancy at 10 mg/kg) of the same compound?
Its receptor occupancy at 10 mg/kg is -18%.

And the IC50 (hPDE2A)?
The IC50 was 19.5 nM.

What about the Emax (hPDE2A) of the same compound?
The Emax was 100%.

What does the source list for `C[C@@H]1CCN(c2cc(I)ccn2)C[C@H]1c1cc(C(F)F)nc2ncnn12` [Compound 16]?
hPDE3B Emax (hPDE3B): 95; hPDE3B pIC50 (hPDE3B): 6.19; IC50 (hPDE10A2): 224 nM; Emax (hPDE10A2): 99%; receptor occupancy at 10 mg/kg (PDE2A; route SC (subcutaneous), 10 mg/kg, male Wistar rats, striatum, percentage occupancy, read-out: PDE2 occupancy at 10 mg/kg): -14%; IC50 (hPDE2A): 18.2 nM; Emax (hPDE2A): 100%

Which results are given for `C[C@@H]1CCN(c2nccc3[nH]ccc23)C[C@H]1c1cc(C(F)F)nc2ncnn12` [Compound 9]?
hPDE3B Emax (hPDE3B): 60; hPDE3B pIC50 (hPDE3B): 5.13; IC50 (hPDE10A2): 708 nM; Emax (hPDE10A2): 92%; receptor occupancy at 10 mg/kg (PDE2A; [2]): 36%; IC50 (hPDE2A): 12.6 nM; Emax (hPDE2A): 101%

Which results are given for `C[C@@H]1CCN(c2nccc3ccc(O)cc23)C[C@H]1c1cc(C(F)F)nc2ncnn12` [Compound 18]?
hPDE3B Emax (hPDE3B): 65; hPDE3B pIC50 (hPDE3B): 5.14; IC50 (hPDE10A2): 331 nM; Emax (hPDE10A2): 97%; receptor occupancy at 10 mg/kg (PDE2A; [2]): -6%; IC50 (hPDE2A; 10 μM cGMP substrate, read-out: hPDE2A pIC50 (converted)): 25.1 nM; Emax (hPDE2A): 101%

For `Cc1cc([C@@H]2CN(c3nccc4ccc(Cl)cc34)CC[C@H]2C)n2ncnc2n1` [Compound 3], which “hPDE3B Emax” value (hPDE3B) is on record?
Its value is 88.

And the “hPDE3B pIC50” value (hPDE3B)?
Its value is 5.49.

What about the IC50 (hPDE10A2) of the same compound?
The IC50 was 83.2 nM.

What about the Emax (hPDE10A2) of the same compound?
The Emax was 100%.

What about the receptor occupancy at 10 mg/kg (PDE2A; [1]) of the same compound?
The receptor occupancy at 10 mg/kg was 90%.

What about the ED50 (PDE2A; po) of the same compound?
The ED50 was 2.12 mg/kg.

What about the “PDE2 occupancy at 10 mg/kg” value (PDE2A; route PO (oral), 10 mg/kg, male Wistar rats, striatum, percentage occupancy) of the same compound?
Its value is 89.

What about the IC50 (hPDE2A) of the same compound?
The IC50 was 3.02 nM.

And the Emax (hPDE2A)?
The Emax was 100%.
